Data: patent US20200023206A1, “SYSTEMS AND METHODS FOR ULTRASOUND MODULATION OF NEURONS” (THE TRUSTEES OF COLUMBIA UNIVERSITY IN THE CITY OF NEW YORK, priority 2016, published 2020)
Values joined by “and” are separate entries in the source; they are usually repeats but may differ in a detail not shown here. Equal entries are not always repeated. “Also recorded” adds a separate entry of the source.

Key:
[1] = system: ultrasound-induced whole-cell currents in HEK cells; experiment: Ruthenium red on ultrasound-induced whole-cell currents (patch clamp, Chamber B+laser); assay type: cell-based; settings: RR 10 μM
Description: FIGS. 20A-20D are diagrams illustrating ruthenium red (RR) on ultrasound (US)-induced currents. FIG. 20A illustrates representative examples of ultrasound-induced currents before (control), during (ruthenium red), and after (washout) RR treatment (black, first stimulus; blue, second; red, third). As embodied herein, cell was held at −90 mV. Ultrasound stimulation parameters were 3.1 MHz, 1.6 MPa, 25 μs, 1 stimulus, 30 s intervals. FIG. 20B illustrates additional representative examples of ultrasound-induced currents with RR treatment. As embodied herein, cell was held at −90 mV. Ultrasound stimulation parameters were the same as FIG. 20A, except the pressure was 1.27 MPa. FIG. 20C illustrates a summary of the drug effects of ruthenium red on ultrasound-induced currents (N=5 cells). As embodied herein, responses to three stimulus presentations per condition were averaged and normalized to the mean amplitude in the control condition for each cell. Experiments were done at −70 mV or −90 mV holding potential. FIG. 20D illustrates HEK cells grouped into two populations according to ultrasound activation thresholds and ruthenium red sensitivity.
For purpose of illustration and not limitation, as embodied herein, system 1700 can be used to measure the pharmacological profile of the ultrasound-induced currents in HEK cells. Ruthenium red (RR) can be used to block non-selective cation channels, including the mechanically activated ion channels Piezol, Piezo2, as well as some TRP channels (TRPA1, TRPV3, TRPV4, TRPV5, TRPV6). As embodied herein, RR (10 μM) can block ultrasound-induced whole-cell currents in HEK cells. For example and not limitation, as embodied herein, each cell was stimulated with ultrasound five times at both −90 mV (or −70 mV) and +30 mV (or +50 mV) alternatively. The same stimulation was applied 10 minutes after RR wash-in and 10 minutes after the RR washout, respectively. […]

[2] = system: ultrasound-induced currents in HEK cells; experiment: Sodium substitution with NMDG on ultrasound-induced currents (patch clamp); assay type: cell-based; settings: N=5 cells
Description: FIGS. 21A-21B are diagrams illustrating exemplary effects of sodium substitution with N-methyl-d-glucamine (NMDG) on ultrasound-induced currents. FIG. 21A illustrates representative examples of ultrasound-induced currents in control solution (Ringers), NMDG-Ringers (without sodium), and in Ringers washout (black, first stimulus; blue, second; red, third). As embodied herein, the cell was held at −90 mV. Ultrasound stimulation parameters were 3.1 MHz, 1.88 MPa, 25 μs, 1 stimulus, 30 s intervals. FIG. 21B illustrates NMDG substitution on ultrasound-induced currents (N=5 cells). As embodied herein, responses to three stimulus presentations per condition were averaged and normalized to the mean amplitude in the control condition for each cell. Cells were held at −90 mV. […] Additionally or alternatively, and as embodied herein, an extracellular cation, such as sodium, can be used to mediate US-induced inward currents. For example and not limitation, as embodied herein, cells were stimulated with US, first in Ringers solution (with sodium), then in an N-methyl-d-glucamine (NMDG)-based Ringer solution (without sodium). NMDG can be utilized at least in part because most mammalian cation channels can be impermeable to this large cation. As embodied herein, each cell was stimulated with US five times at −90 and +30 mV alternatively. The same stimuli were applied 10 minutes following NMDG replacement of sodium and 10 minutes following washout with Ringers (with sodium). […] The first three responses were used to calculate the mean amplitude of the responses in each condition. With reference to FIGS. 21A and 21B, in 4/5 cells, a reduction in US-activated currents with NMDG substitution was shown; however, in most cases, the effect was not reversible, as shown for example in FIG. 21B. This can be due at least in part because NMDG was not effectively washed out of chamber during the washout period (˜10 minutes). Additionally or alternatively, the lack of reversibility can indicate cellular rundown over the course of the stimulations.

N.N.N.N.N.N.N.N.N.N.N.N.N.N.[Cl-].[Cl-].[Cl-].[Cl-].[Cl-].[Cl-].[O-2].[O-2].[Ru+3].[Ru+3].[Ru+4] [RR, Ruthenium red]
effect on ultrasound-induced whole-cell currents ([1]; 10 minutes after wash-in, held at -90 mV or -70 mV, N=5 cells): can block; also recorded: varying effects
number of cells showing enhanced US-induced currents in the presence of RR ([1]; N=5 cells analysed): two
number of cells showing reduced US-evoked currents in the presence of RR ([1]; N=5 cells analysed): Three

CNC[C@H](O)[C@@H](O)[C@H](O)[C@H](O)CO [NMDG, N-methyl-d-glucamine]
cells showing reduction in US-activated currents with NMDG substitution ([2]; NMDG-Ringers without sodium, 10 minutes after replacement, held at -90 mV): Four and 4/5
cells showing increased response following NMDG replacement ([2]; NMDG-Ringers without sodium, held at -90 mV): one
effect of replacement of sodium with NMDG on ultrasound-induced currents ([2]; un-normalized data, P=0.16 paired t test, -90 mV): did not show significant effect
